# Source: patent US20080214555A1 (priority 2007, published 2008)
# How the values were obtained:
# Assay type in all cases: in vivo, human
# [1] = test system: patients with non-ST elevation acute coronary syndrome; experiment: MERLIN-TIMI 36: ischemia on Holter / continuous ECG (CECG)
# Experimental: Median clinical follow-up was 12 months. At randomization, 3-lead CECG monitoring was initiated for median duration of 6.9 days. Recurrent ischemia on CECG was defined as ST dep >1 mm from baseline lasting >1 min. The TRS is calculated as the sum of seven presenting characteristics: 1) age >65 yrs, 2) >3 cardiac risk factors, 3) documented coronary artery disease, 4) recent severe angina, 5) ST deviation >0.5 mm, 6) elevated cardiac markers, and 7) prior aspirin use and is categorized as low (0-2), moderate (3-4), or high (>4) risk.
# The data for total duration (minutes) of ischemia on Holter between randomization and 72 hours from MERLIN-TIMI 36 is shown in Table 19 below.
# At randomization, 6355 patients (99%) had 3-lead CECG monitoring initiated (median duration 6.9 days). The primary CECG endpoint was the rate of ST dep ≧1 mm from baseline lasting ≧1 minute with heart rate at onset <100 bpm. Exploratory analyses using ST dep ≧0.5 mm were also performed.
# [2] = test system: patients with non-ST elevation acute coronary syndrome; experiment: MERLIN-TIMI 36: arrhythmias on 7 day continuous ECG (Holter) recording
# Experimental: Continuous ECG (Holter) recording was performed for the first 7 days after randomization. Because of the known prolongation of the QT interval with ranolazine, analyses of a prespecified set of arrhythmias were a major objective of the trial. All arrhythmias were evaluated in the TIMI ECG Core Laboratory by cardiologists blinded to treatment and outcomes.
# Continuous ECG (cECG or Holter) recording was performed for the first 7 days after randomization. Prespecified arrhythmia analyses were evaluated by a core laboratory blinded to treatment and outcomes.
# [3] = test system: patients with non-ST elevation acute coronary syndrome; experiment: MERLIN-TIMI 36: HbA1c and hyperglycemia
# Description: HbA1c data are reported as least-square means. Patients categorized as “diabetic” had been diagnosed as diabetic before or at the time of randomization. Patients categorized as “no diabetes” had not been diagnosed as diabetic before or at the time of randomization. Some patients characterized as “no diabetes” may have been diagnosed as “diabetic” during the trial; however, these patients are still listed in the “no diabetes” category in FIG. 4B.
# [4] = Example 8 table, first 7 days, n = 3162
# [5] = Table 24, all patients dosed, n = 3268
# [6] = incidence of ventricular tachyarrhythmias table
# [7] = Baseline (in-hospital visit prior to randomization), all patients dosed, n = 3268
# [8] = Diabetes at enrollment, n = 1098, Baseline
# [9] = Diabetes at enrollment, n = 1098, Final Visit
# [10] = Diabetes at enrollment, n = 1098, Month 4
# [11] = Diabetes at enrollment, n = 1098, Month 8
# [12] = Diabetes at enrollment, n = 1098, Month 16
# [13] = Final Visit, all patients dosed, n = 3268
# [14] = Month 4, all patients dosed, n = 3268
# [15] = Month 8, all patients dosed, n = 3268
# [16] = Month 16, all patients dosed, n = 3268
# [17] = No Diabetes at enrollment, n = 2170, Baseline
# [18] = No Diabetes at enrollment, n = 2170, Final Visit
# [19] = No Diabetes at enrollment, n = 2170, Month 4
# [20] = No Diabetes at enrollment, n = 2170, Month 8
# [21] = No Diabetes at enrollment, n = 2170, Month 16
# [22] = at 4 months, 4306 patients with serial measurements
# [23] = patients with DM treated with ranolazine
smiles,measurement,setting,value
"COc1ccccc1OCC(O)CN1CCN(CC(=O)Nc2c(C)cccc2C)CC1 (racemic) [Ranolazine, (±)-N-(2,6-dimethylphenyl)-4-[2-hydroxy-3-(2-methoxyphenoxy)-propyl]-1-piperazineacetamide]",Rate of primary CECG endpoint events,[1]; >72 hours after randomization,11.6%
same,"RR, primary CECG endpoint events","[1]; >72 hours after randomization, ranolazine vs placebo",0.86
same,"Rate of primary CECG endpoint (ST dep ≧1 mm lasting ≧1 minute, heart rate at onset <100 bpm)",[1]; entire 7 day recording,19.2%
same,Rate of CECG ischemic events,[1]; lower ischemic threshold of 0.5 mm,22.9
same,"RR, CECG ischemic events","[1]; lower ischemic threshold of 0.5 mm, ranolazine vs placebo",0.91
same,"Episode of ventricular arrhythmia lasting >=8 beats, %",[2]; Example 8,5.5%
same,"Episode of ventricular arrhythmia lasting >=8 beats, number of patients",[2]; Example 8,175
same,"New-onset atrial fibrillation, %",[2]; Example 8,1.7%
same,"New-onset atrial fibrillation, number of patients",[2]; Example 8,55
same,"Pauses >=3 seconds, %",[2]; Example 8,3.1%
same,"Pauses >=3 seconds, number of patients",[2]; Example 8,97
same,"Supraventricular tachycardia, %",[2]; Example 8,43.2%
same,"Supraventricular tachycardia, number of patients",[2]; Example 8,1413
same,"Any ventricular tachycardia >= 3 beats, %",[2]; [4],(29.0) %
same,"Any ventricular tachycardia >= 3 beats, number",[2]; [4],948
same,"Brady, Complete heart block, or Pause >= 2.5 sec, %",[2]; [4],(38.5) %
same,"Brady, Complete heart block, or Pause >= 2.5 sec, number",[2]; [4],1257
same,"Bradycardia < 45 bpm for at least 4 beats, %",[2]; [4],(37.8) %
same,"Bradycardia < 45 bpm for at least 4 beats, number",[2]; [4],1236
same,"Clinically Significant Arrhythmia on Holter, %",[2]; [4],(71.3) %
same,"Clinically Significant Arrhythmia on Holter, number",[2]; [4],2330
same,"Pause >3 secs, %",[2]; [4],(3.1) %
same,"Pause >3 secs, number",[2]; [4],97
same,"Pause >3 secs: AV node block, %",[2]; [4],(1.0) %
same,"Pause >3 secs: AV node block, number",[2]; [4],31
same,"Pause >3 secs: Other, %",[2]; [4],(0.1) %
same,"Pause >3 secs: Other, number",[2]; [4],2
same,"Pause >3 secs: Sinoatrial node block, %",[2]; [4],(2.0) %
same,"Pause >3 secs: Sinoatrial node block, number",[2]; [4],64
same,"Polymorphic VT >= 8 beats, %",[2]; [4],(1.2) %
same,"Polymorphic VT >= 8 beats, number",[2]; [4],38
same,"Sustained VT (>=30 secs), %",[2]; [4],(0.44) %
same,"Sustained VT (>=30 secs), number",[2]; [4],14
same,"Sustained VT (>=30 secs): Monomorphic, %",[2]; [4],(0.12) %
same,"Sustained VT (>=30 secs): Monomorphic, number",[2]; [4],4
same,"Sustained VT (>=30 secs): Polymorphic, %",[2]; [4],(0.32) %
same,"Sustained VT (>=30 secs): Polymorphic, number",[2]; [4],10
same,"Triplets, %",[2]; [4],(46.9) %
same,"Triplets, number",[2]; [4],1532
same,"VT >= 4 beats, %",[2]; [4],(23.6) %
same,"VT >= 4 beats, number",[2]; [4],772
same,"VT >= 8 beats (<30 secs), %",[2]; [4],(5.5) %
same,"VT >= 8 beats (<30 secs), number",[2]; [4],175
same,"Episode of ventricular tachycardia lasting >8 beats, %",[2]; Example 9,5.3%
same,"Episode of ventricular tachycardia lasting >8 beats, number of patients",[2]; Example 9,166
same,"New-onset atrial fibrillation, %",[2]; Example 9,1.7%
same,"New-onset atrial fibrillation, number of patients",[2]; Example 9,55
same,"Pauses >3 seconds, %",[2]; Example 9,3.1%
same,"Pauses >3 seconds, number of patients",[2]; Example 9,97
same,"Supraventricular tachycardia, %",[2]; Example 9,44.7%
same,"Supraventricular tachycardia, number of patients",[2]; Example 9,1413
same,Incidence of ventricular tachycardia,[2]; No. of beats ≧8,5.3%
same,Incidence of ventricular tachycardia,[2]; No. of beats ≧10,3.5%
same,Incidence of ventricular tachycardia,[2]; No. of beats ≧15,1.3%
same,Incidence of ventricular tachycardia,[2]; No. of beats ≧20,0.9%
same,"Any Clinically Significant Arrhythmia during 7 day Holter, %",[2]; [5],(71.3%)
same,"Any Clinically Significant Arrhythmia during 7 day Holter, number",[2]; [5],2330
same,"Bradycardic episode during 7 day Holter, %",[2]; [5],(38.5%)
same,"Bradycardic episode during 7 day Holter, number",[2]; [5],1257
same,"New onset atrial fibrillation during 7 day Holter, %",[2]; [5],(1.7%)
same,"New onset atrial fibrillation during 7 day Holter, number",[2]; [5],55
same,"Supraventricular tachycardia (any SVT >= 120 bpm) during 7 day Holter, %",[2]; [5],(43.2%)
same,"Supraventricular tachycardia (any SVT >= 120 bpm) during 7 day Holter, number",[2]; [5],1413
same,"Ventricular tachycardia (any VT >= 100 bpm >= 3 beats) during 7 day Holter, %",[2]; [5],(29.0%)
same,"Ventricular tachycardia (any VT >= 100 bpm >= 3 beats) during 7 day Holter, number",[2]; [5],948
same,"Polymorphic VT >= 8 beats on cECG, %",[2]; [6],(1.2) %
same,"Sustained VT (>=30 sec) on cECG, %",[2]; [6],(0.44) %
same,"VT ≧ 3 beats (≧100 b/m) on cECG, %",[2]; [6],(52.1) %
same,"VT ≧ 4 beats (≧100 b/m) on cECG, %",[2]; [6],(20.9) %
same,"VT ≧ 8 beats (<30 sec) on cECG, %",[2]; [6],(5.3) %
same,"Polymorphic VT >= 8 beats on cECG, Δ n",[2]; placebo vs ranolazine,10
same,"Sustained VT (>=30 sec) on cECG, Δ n",[2]; placebo vs ranolazine,0
same,"VT ≧ 3 beats (≧100 b/m) on cECG, Δ n",[2]; placebo vs ranolazine,347
same,"VT ≧ 4 beats (≧100 b/m) on cECG, Δ n",[2]; placebo vs ranolazine,279
same,"VT ≧ 8 beats (<30 sec) on cECG, Δ n",[2]; placebo vs ranolazine,99
same,"Polymorphic VT >= 8 beats on cECG, Δ (%)",[2]; ranolazine vs placebo,(−21) %
same,"VT ≧ 3 beats (≧100 b/m) on cECG, Δ (%)",[2]; ranolazine vs placebo,(−17) %
same,"VT ≧ 4 beats (≧100 b/m) on cECG, Δ (%)",[2]; ranolazine vs placebo,(−30) %
same,"VT ≧ 8 beats (<30 sec) on cECG, Δ (%)",[2]; ranolazine vs placebo,(−37) %
same,Incidence of ventricular tachycardia of >8 beats,[2]; subgroup baseline QTc >450 msec,5.6%
same,Incidence of ventricular tachycardia of >8 beats,[2]; subgroup baseline QTc ≦450 msec,5.2%
same,Incidence of ventricular tachycardia of >8 beats,[2]; subgroup ejection fraction <40%,8.8%
same,Incidence of ventricular tachycardia of >8 beats,[2]; subgroup ejection fraction ≧40%,5.3%
same,"Patients with HbA1C ≧7%, number",[3]; [7],655
same,"Patients with HbA1C ≧7%, proportion",[3]; [7],(24%)
same,"Patients with HbA1C ≧7%, number",[3]; [8],542
same,"Patients with HbA1C ≧7%, proportion",[3]; [8],(57%)
same,"Patients with HbA1C ≧7%, number",[3]; [9],324
same,"Patients with HbA1C ≧7%, proportion",[3]; [9],(42%)
same,"Patients with HbA1C ≧7%, number",[3]; [10],326
same,"Patients with HbA1C ≧7%, proportion",[3]; [10],(41%)
same,"Patients with HbA1C ≧7%, number",[3]; [11],263
same,"Patients with HbA1C ≧7%, proportion",[3]; [11],(44%)
same,"Patients with HbA1C ≧7%, number",[3]; [12],63
same,"Patients with HbA1C ≧7%, proportion",[3]; [12],(48%)
same,"Patients with HbA1C ≧7%, number",[3]; [13],416
same,"Patients with HbA1C ≧7%, proportion",[3]; [13],(17%)
same,"Patients with HbA1C ≧7%, number",[3]; [14],404
same,"Patients with HbA1C ≧7%, proportion",[3]; [14],(17%)
same,"Patients with HbA1C ≧7%, number",[3]; [15],335
same,"Patients with HbA1C ≧7%, proportion",[3]; [15],(18%)
same,"Patients with HbA1C ≧7%, number",[3]; [16],84
same,"Patients with HbA1C ≧7%, proportion",[3]; [16],(20%)
same,"Patients with HbA1C ≧7%, number",[3]; [17],113
same,"Patients with HbA1C ≧7%, proportion",[3]; [17],(6%)
same,"Patients with HbA1C ≧7%, number",[3]; [18],92
same,"Patients with HbA1C ≧7%, proportion",[3]; [18],(6%)
same,"Patients with HbA1C ≧7%, number",[3]; [19],78
same,"Patients with HbA1C ≧7%, proportion",[3]; [19],(5%)
same,"Patients with HbA1C ≧7%, number",[3]; [20],72
same,"Patients with HbA1C ≧7%, proportion",[3]; [20],(6%)
same,"Patients with HbA1C ≧7%, number",[3]; [21],21
same,"Patients with HbA1C ≧7%, proportion",[3]; [21],(7%)
same,HbA1c (least-square mean),[3]; [22],5.9%
same,HbA1c change from baseline,[3]; [22],−0.30%
same,Worsening of hyperglycemia (>1% increase in HbA1c),"[3]; diabetic patients, by 1 year of follow-up",14.2%
same,"HR, worsening of hyperglycemia","[3]; diabetic patients, ranolazine vs placebo, 95% CI 0.51, 0.77",0.63
same,Reported hypoglycemia,[3]; patients with DM,3%
same,HbA1c after decline,[3]; [23],6.8%
same,HbA1c Δ,[3]; [23],−0.64%
same,HbA1c before decline,"[3]; patients with DM treated with ranolazine, starting value",7.2%
same,Patients achieving an HbA1c <7%,"[3]; patients with DM, at 4 months",59%
same,Incidence of new fasting glucose >110 mg/dL or HbA1c ≧6%,[3]; patients without DM at randomization or baseline (fasting glucose <100 mg/dL and HbA1c <6%),31.8%
same,"HR, new fasting glucose >110 mg/dL or HbA1c ≧6%","[3]; patients without DM, ranolazine vs placebo, 95% CI 0.53, 0.88",0.68
